Assay results published in US20080031887A1, “Conjugates for inducing targeted immune responses and methods of making and using same” (priority 2006, published 2008).

How the values were obtained:
Format in all cases: in vivo
TUBO cells [1] = assay: TUBO tumors implanted s.c. in Balb/c (non-tolerant) mice, treatment from day 10; settings: 20 μg/injection three times a week for three weeks; for antitumor effect (tumor rejection / tumor growth): i.t. injection, FIG. 1A; for antitumor effect: s.c. injection in the opposite flank, data not shown
Experimental: (§1) FIG. 1 contains graphic representations illustrating that intratumoral injections of CpG-ODN induce rejection of tumors in Balb/c, BALB-neuT and A2×neu mice. Balb/c and BALB-neuT were implanted s.c. with 10^6 TUBO cells, and A2×neu mice were implanted s.c. with 10^6 N202.A2 cells on day zero. On day 10, animals started treatment with i.t. injections of TLR-ligands three times a week (20 μg/injection) for three weeks. […]
(§2) For these experiments, Balb/c (non-tolerant) and BALB-neuT (tolerant) mice implanted with TUBO cells and A2×neu mice implanted with N202.A2 cells were used (it is important to remember that TUBO cells are tumorigenic in Balb/c and BALB-neuT mice, while N202.A2 cells are tumorigenic only in A2×neu mice but not in A2×FVB mice). It is well established that the injection of these ligands results in the activation of DCs, monocytes/macrophages, and B cells, and as a consequence of the activation of these cells, NK cell and T cell responses are stimulated. […] Balb/c and BALB-neuT mice were implanted s.c. with 10^6 TUBO cells, and A2×neu mice were implanted s.c. with 10^6 N202.A2 cells on day zero. On day 10, animals started treatment with s.c. injections of anti-CD40 mAb, Poly I:C, LPS, flagellin, imiquimod, CpG-ODN and control-ODN (as a control) in the opposite flank from where the tumor was injected, three times a week (20 μg/injection) for three weeks. […] It was decided to test whether intratumoral (i.t.) injection of TLR ligands would result in the induction of an antitumor response. The effect of i.t. injections of anti-CD40 mAb, Poly I:C, LPS, flagellin, imiquimod, CpG-ODN and control-ODN (as a control) three times a week (20 μg/injection) for three weeks was tested. […]
Evaluation of anti-neu-CpG-ODN (cleavable bond) vs. anti-neu-CpG-ODN (non-cleavable bond). In determining the effectiveness of the conjugates of the present invention, the antitumor effects of anti-neu-CpG-ODN generated with a cleavable bond or non-cleavable bond were evaluated. Anti-neu-CpG-ODN generated with a non-cleavable bond was produced by the reaction pathway shown in FIG. 7A and contained a hydrazone linkage between the Anti-neu antibody and the CpG-ODN. Anti-neu-CpG-ODN generated with a cleavable bond was produced by the reaction pathway shown in FIG. 7B and contained a disulfide cleavable linkage. TUBO cells (1×10^6) were implanted s.c. on day zero on Balb/c. Starting on day 10, animals were injected intratumorally with 30 μg/injection of each of the anti-neu-CpG-ODN molecules three times a week for three weeks.

TUBO cells [2] = assay: TUBO tumors implanted s.c. in BALB-neuT (tolerant) mice, treatment from day 10; settings: 20 μg/injection three times a week for three weeks; for antitumor effect (tumor rejection / tumor growth): i.t. injection, FIG. 1B; for antitumor effect: s.c. injection in the opposite flank, data not shown
Experimental: as §1, §2

N202.A2 cells = assay: N202.A2 tumors implanted s.c. in A2×neu mice, treatment with TLR ligands from day 10; settings: 20 μg/injection three times a week for three weeks; for antitumor effect (tumor rejection / tumor growth): i.t. injection, FIG. 1C; for antitumor effect: s.c. injection in the opposite flank, data not shown
Experimental: FIG. 1 contains graphic representations illustrating that intratumoral injections of CpG-ODN induce rejection of tumors in Balb/c, BALB-neuT and A2×neu mice. Balb/c and BALB-neuT were implanted s.c. with 10^6 TUBO cells, and A2×neu mice were implanted s.c. with 10^6 N202.A2 cells on day zero. On day 10, animals started treatment with i.t. injections of TLR-ligands three times a week (20 μg/injection) for three weeks.
For these experiments, Balb/c (non-tolerant) and BALB-neuT (tolerant) mice implanted with TUBO cells and A2×neu mice implanted with N202.A2 cells were used (it is important to remember that TUBO cells are tumorigenic in Balb/c and BALB-neuT mice, while N202.A2 cells are tumorigenic only in A2×neu mice but not in A2×FVB mice). It is well established that the injection of these ligands results in the activation of DCs, monocytes/macrophages, and B cells, and as a consequence of the activation of these cells, NK cell and T cell responses are stimulated. […] Balb/c and BALB-neuT mice were implanted s.c. with 10^6 TUBO cells, and A2×neu mice were implanted s.c. with 10^6 N202.A2 cells on day zero. On day 10, animals started treatment with s.c. injections of anti-CD40 mAb, Poly I:C, LPS, flagellin, imiquimod, CpG-ODN and control-ODN (as a control) in the opposite flank from where the tumor was injected, three times a week (20 μg/injection) for three weeks. […] It was decided to test whether intratumoral (i.t.) injection of TLR ligands would result in the induction of an antitumor response. The effect of i.t. injections of anti-CD40 mAb, Poly I:C, LPS, flagellin, imiquimod, CpG-ODN and control-ODN (as a control) three times a week (20 μg/injection) for three weeks was tested.

Row | Compound | antitumor effect (tumor rejection / tumor growth) (TUBO cells [1]) | antitumor effect (TUBO cells [1]) | antitumor effect (tumor rejection / tumor growth) (TUBO cells [2]) | antitumor effect (TUBO cells [2]) | antitumor effect (tumor rejection / tumor growth) (N202.A2 cells) | antitumor effect (N202.A2 cells)
1 | CC(C)Cn1cnc2c(N)nc3ccccc3c21 [imiquimod] | did not have any effect in controlling the tumor growth | no antitumor effect | did not have any effect in controlling the tumor growth | no antitumor effect | did not have any effect in controlling the tumor growth | no antitumor effect
2 | Poly I:C | induced the rejection of tumors | no antitumor effect | – | no antitumor effect | – | no antitumor effect
3 | flagellin | did not have any effect in controlling the tumor growth | no antitumor effect | did not have any effect in controlling the tumor growth | no antitumor effect | did not have any effect in controlling the tumor growth | no antitumor effect
